Tests used:
[1] = test system: HCT116 cells; assay: Intracellular accumulation, western blotting of cell lysates; assay type: cell-based; conditions: anti-flag western blot, vs EPO-motif
Experimental: Western blots were performed according to methods in previous studies[29],[30]. At 72 h post transfection, the EPO and sFγRIII recombinant proteins were purified with anti-Flag M2 Affinity Gel (Sigma-Aldrich). The gel was washed twice with phosphate-buffered saline, and proteins were eluted with the 3× FLAG tag peptide (Sigma-Aldrich). The purified proteins were subjected to 3–10% gradient sodium dodecyl sulfate-polyacrylamide gel electrophoresis and subsequently transferred to a polyvinylidene difluoride membrane (Millipore, Billerica, MA). After blocking with Blocking One solution (Nacalai Tesque, Kyoto, Japan), the membranes were incubated with monoclonal mouse anti-Flag M2 (Sigma-Aldrich, F1804), anti-human LMAN1 (ERGIC-53) (Proteintech, Tokyo, Japan, 13364), anti-human SDNSF/MCFD2 (R&D System, Minneapolis, MN, MAB2357), and anti-β-actin (Sigma-Aldrich, A2228) antibodies, and then with horseradish peroxidase (HRP)-conjugated secondary antibody [anti-mouse IgG antibody-HRP, GE Healthcare (Piscataway, NJ) and anti-rabbit Ig antibody-HRP, Cell Signaling Technology (Danvers, MA)] in 20 mM Tris-HCl (pH 7.6) containing 150 mM NaCl and 0.05% Tween-20. The protein bands were visualized with Immobilon Western Chemiluminescent HRP substrate solution (Millipore).

[2] = test system: HCT116 cells (WT); assay: EPO secretion level (ELISA) from wild-type HCT116 cells; assay type: cell-based; conditions: for EPO secretion level (Figure 4F): HCT116, alanine substitutions in motif
Text: For expression of the FVIII and FV full-length and deletion mutant proteins in mammalian cells, the codon-optimized FVIII and FV genes were inserted into the p3XFLAG-CMV-14 Expression Vector and p3XFLAG-CMV-9 Expression Vector, respectively (Sigma-Aldrich, St. Louis, MO). For the expression of the wild-type and mutated AAT, EPO, and sFγRIIIa in mammalian cells, the corresponding genes (purchased from FASMAC Co., Ltd., Atsuki, Japan) were inserted into the p3XFLAG-CMV-9 Expression Vector (Sigma-Aldrich).
HCT116 and its mutated cells as well as HEK293T were maintained in Dulbecco’s modified Eagle’s medium (DMEM) supplemented with 10% fetal bovine serum in 5% CO2 at 37 °C. For complementary DNA (cDNA) transfection, cells were grown overnight and transfected using Polyethylenimine “Max” (Polysciences Inc.) as described previously. Expi293F cells (Thermo Fisher Scientific, Waltham, MA) were maintained in Expi293 Expression Medium (Thermo Fisher Scientific) in 5% CO2 at 37 °C on an orbital shaker platform rotating at 125 r.p.m. For cDNA transfection, cells were transfected with the ExpiFectamine 293 Transfection Kit (Thermo Fisher Scientific Inc.). Protein expression was performed in serum-free medium.
The secreted levels of FVIII and FV antigens in the culture medium were determined with an sandwich enzyme-linked immunosorbent assay (ELISA) method using the VisuLize FVIII Antigen Kit (Affinity Biologicals Inc., Ancaster, ON) and the Asssay Max™ Human Factor V ELISA Kit (ASSAYPRO, MO), respectively. The secreted levels of AAT and EPO antigens in the culture medium were determined with an ELASA method using the anti-AAT antibody (Agilent, Santa Clara, CA) and anti-Flag M2 antibody (Sigma-Aldrich), respectively.

Substance: EPO: recombinant Flag-tagged erythropoietin without motif (Fig. 5 prints EPO for mScarlet-I-EPO)
- intracellular accumulation [1]: a higher level of accumulation in the cells
- EPO secretion level (Figure 4E), average ([2]; HCT116, N-glycan-deficient mutants, Average, EPO = 1): 1
- EPO secretion level (Figure 4E) ([2]; HCT116, N-glycan-deficient mutants, replicate 1): 1.0366
- EPO secretion level (Figure 4E) ([2]; HCT116, N-glycan-deficient mutants, replicate 2): 1.006
- EPO secretion level (Figure 4E) ([2]; HCT116, N-glycan-deficient mutants, replicate 3): 0.9333
- EPO secretion level (Figure 4E) ([2]; HCT116, N-glycan-deficient mutants, replicate 4): 1.024
- EPO secretion level (Figure 4F), average ([2]; HCT116, alanine substitutions in C-terminal motif, Average, n = 3, EPO = 1): 1
- EPO secretion level (Figure 4F) ([2]; replicate 1): 1.027
- EPO secretion level (Figure 4F) ([2]; replicate 2): 1.0473
- EPO secretion level (Figure 4F) ([2]; replicate 3): 0.9257
- EPO secretion level (Figure 4C), average ([2]; HCT116, motif position series, average, n = 3 independent transfections, Flag-EPO average = 1): 1
- EPO secretion level (Figure 4C) ([2]; HCT116, motif position series, replicate 1): 1.0819
- EPO secretion level (Figure 4C) ([2]; HCT116, motif position series, replicate 2): 0.9754
- EPO secretion level (Figure 4C) ([2]; HCT116, motif position series, replicate 3): 0.9427
- EPO secretion level (Figure 4D), average ([2]; Wild type HCT116, KO series, average, n = 3, EPO in wild type = 1): 1
- EPO secretion level (Figure 4D) ([2]; Wild type HCT116, KO series, replicate 1): 0.9075
- EPO secretion level (Figure 4D) ([2]; Wild type HCT116, KO series, replicate 2): 1.011
- EPO secretion level (Figure 4D) ([2]; Wild type HCT116, KO series, replicate 3): 1.081

Source: PMC7069976, “Improved secretion of glycoproteins using an N-glycan-restricted passport sequence tag recognized by cargo receptor” (Nature Communications, 2020)
